Data: PubChem BioAssay (NCI)
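48-hour exposure; five concentrations; linearly interpolated endpoints. Here, GI50 denotes the concentration required for 50% inhibition of growth. TGI denotes the concentration required for complete inhibition of growth.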

Legend:
Test in all cases: inhibition of tumour cell growth, NCI panel, 48 h
NCI-H23 lung = system: NCI-H23 lung
SK-MEL-5 melanoma = system: SK-MEL-5 melanoma
MDA-MB-435 = system: MDA-MB-435
SNB-19 CNS = system: SNB-19 CNS
NCI-H522 lung = system: NCI-H522 lung
SF-295 CNS = system: SF-295 CNS
UACC-257 melanoma = system: UACC-257 melanoma
NCI-H460 lung = system: NCI-H460 lung
HT29 colon = system: HT29 colon
HL-60(TB) leukemia = system: HL-60(TB) leukemia
LOX IMVI melanoma = system: LOX IMVI melanoma
SNB-75 CNS = system: SNB-75 CNS
A549 NSCLC = system: A549 NSCLC
SR leukemia = system: SR leukemia
OVCAR-5 ovarian = system: OVCAR-5 ovarian
COLO 205 colon = system: COLO 205 colon
ACHN renal = system: ACHN renal
HOP-92 NSCLC = system: HOP-92 NSCLC
CCRF-CEM leukemia = system: CCRF-CEM leukemia
RXF 393 renal = system: RXF 393 renal
KM12 colon = system: KM12 colon
TK-10 renal = system: TK-10 renal
A498 renal = system: A498 renal
RPMI-8226 leukemia = system: RPMI-8226 leukemia
HCT-15 colon = system: HCT-15 colon
T-47D breast = system: T-47D breast
SK-MEL-28 melanoma = system: SK-MEL-28 melanoma
MALME-3M melanoma = system: MALME-3M melanoma
SK-MEL-2 melanoma = system: SK-MEL-2 melanoma
EKVX NSCLC = system: EKVX NSCLC
M14 melanoma = system: M14 melanoma
UO-31 renal = system: UO-31 renal
PC-3 prostate = system: PC-3 prostate
SF-268 CNS = system: SF-268 CNS
HCT-116 colon = system: HCT-116 colon
K-562 leukemia = system: K-562 leukemia
BT-549 breast = system: BT-549 breast
OVCAR-3 ovarian = system: OVCAR-3 ovarian
OVCAR-8 ovarian = system: OVCAR-8 ovarian
786-0 renal = system: 786-0 renal
UACC-62 melanoma = system: UACC-62 melanoma
SK-OV-3 ovarian = system: SK-OV-3 ovarian
MDA-MB-231 breast = system: MDA-MB-231 breast
SN12C renal = system: SN12C renal
MOLT-4 leukemia = system: MOLT-4 leukemia
HCC-2998 colon = system: HCC-2998 colon
SF-539 CNS = system: SF-539 CNS
SW-620 colon = system: SW-620 colon
U251 CNS = system: U251 CNS
OVCAR-4 ovarian = system: OVCAR-4 ovarian
IGROV1 ovarian = system: IGROV1 ovarian
NCI/ADR-RES ovarian = system: NCI/ADR-RES ovarian
CAKI-1 renal = system: CAKI-1 renal
NCI-H226 lung = system: NCI-H226 lung
MCF7 breast = system: MCF7 breast
HS 578T breast = system: HS 578T breast
HOP-62 NSCLC = system: HOP-62 NSCLC
DU-145 prostate = system: DU-145 prostate

## CC1(C)Cc2c(Br)c(Br)c(Br)c(OCC(O)CN3CCOCC3)c2O1 (stereo unspecified)
NCI-H23 lung
  GI50: 13.5 µM
  TGI: 27.6 µM
SK-MEL-5 melanoma
  GI50: 10.2 µM
  TGI: 22 µM
MDA-MB-435
  GI50: 15.5 µM
  TGI: 31.9 µM
SNB-19 CNS
  GI50: 13.4 µM
  TGI: 26.4 µM
NCI-H522 lung
  GI50: 12.4 µM
  TGI: 26.7 µM
SF-295 CNS
  GI50: 5.17 µM
  TGI: 20.3 µM
UACC-257 melanoma
  GI50: 19.1 µM
  TGI: 37.8 µM
NCI-H460 lung
  GI50: 9.29 µM
  TGI: 25.8 µM
HT29 colon
  GI50: 3.73 µM
  TGI: 19 µM
HL-60(TB) leukemia
  GI50: 3.72 µM
  TGI: 17.9 µM
LOX IMVI melanoma
  GI50: 13.6 µM
  TGI: 27.9 µM
SNB-75 CNS
  GI50: 12.6 µM
  TGI: 38.1 µM
A549 NSCLC
  GI50: 12.9 µM
  TGI: 28.4 µM
SR leukemia
  GI50: 5.14 µM
  TGI: 18.4 µM
OVCAR-5 ovarian
  GI50: 14.8 µM
  TGI: 28.8 µM
COLO 205 colon
  GI50: 13.4 µM
  TGI: 27 µM
ACHN renal
  GI50: 15.1 µM
  TGI: 28.7 µM
HOP-92 NSCLC
  GI50: 3.76 µM
  TGI: 21.5 µM
CCRF-CEM leukemia
  GI50: 10.2 µM
  TGI: 24.1 µM
RXF 393 renal
  GI50: 3.69 µM
  TGI: 13 µM
KM12 colon
  GI50: 13.4 µM
  TGI: 28.9 µM
TK-10 renal
  GI50: 14.5 µM
  TGI: 30 µM
A498 renal
  GI50: 12.6 µM
  TGI: 26.4 µM
RPMI-8226 leukemia
  GI50: 3.82 µM
  TGI: 18.7 µM
HCT-15 colon
  GI50: 13.7 µM
  TGI: 26.8 µM
T-47D breast
  GI50: 13.1 µM
  TGI: 27.3 µM
SK-MEL-28 melanoma
  GI50: 15 µM
  TGI: 31.9 µM
MALME-3M melanoma
  GI50: 15 µM
  TGI: 32.7 µM
SK-MEL-2 melanoma
  GI50: 7.64 µM
  TGI: 23.8 µM
EKVX NSCLC
  GI50: 7.72 µM
  TGI: 20.5 µM
M14 melanoma
  GI50: 17.9 µM
  TGI: 37.1 µM
UO-31 renal
  GI50: 12.8 µM
  TGI: 27.4 µM
PC-3 prostate
  GI50: 7.93 µM
  TGI: 20.7 µM
SF-268 CNS
  GI50: 12.1 µM
  TGI: 27.8 µM
HCT-116 colon
  GI50: 15.4 µM
  TGI: 45.2 µM
K-562 leukemia
  GI50: 3.1 µM
  TGI: 14.3 µM
BT-549 breast
  GI50: 10.5 µM
  TGI: 22.3 µM
OVCAR-3 ovarian
  GI50: 12.3 µM
  TGI: 28.5 µM
OVCAR-8 ovarian
  GI50: 11.3 µM
  TGI: 35.4 µM
786-0 renal
  GI50: 13 µM
  TGI: 28.6 µM
UACC-62 melanoma
  GI50: 13.8 µM
  TGI: 27.5 µM
SK-OV-3 ovarian
  GI50: 15.9 µM
  TGI: 29.6 µM
MDA-MB-231 breast
  GI50: 10.1 µM
  TGI: 22.5 µM
SN12C renal
  GI50: 17.4 µM
  TGI: 33.5 µM
MOLT-4 leukemia
  GI50: 3.15 µM
  TGI: 14.1 µM
HCC-2998 colon
  GI50: 14.1 µM
  TGI: 28.8 µM
SF-539 CNS
  GI50: 12.5 µM
  TGI: 26 µM
SW-620 colon
  GI50: 15.6 µM
  TGI: 29.8 µM
U251 CNS
  GI50: 13.7 µM
  TGI: 27.9 µM
OVCAR-4 ovarian
  GI50: 19.3 µM
  TGI: > 100 µM
IGROV1 ovarian
  GI50: 14.1 µM
  TGI: 28.4 µM
NCI/ADR-RES ovarian
  GI50: 16.1 µM
  TGI: 34.7 µM
CAKI-1 renal
  GI50: 12.3 µM
  TGI: 27.4 µM
NCI-H226 lung
  GI50: 15.2 µM
  TGI: 34.9 µM
MCF7 breast
  GI50: 13.4 µM
  TGI: 29 µM
HS 578T breast
  GI50: 17.2 µM
  TGI: 47.4 µM
HOP-62 NSCLC
  GI50: 12.2 µM
  TGI: 27.3 µM
DU-145 prostate
  GI50: 13.4 µM
  TGI: 26.2 µM
